Two molecules from article PMC9727700 (Redox Biology, 2022) can be followed below.

For experiment [1], the system named is SH-SY5Y cells. Description: Intracellular 4-HNE levels in fatty acid-treated SH-SY5Y cells. The class given is cell-based, human. To be noted: 50 μM.
Experiment [2] has as its system SH-SY5Y cells. As to the kind of experiment: Rotenone-treated SH-SY5Y cells: mitochondrial membrane potential. Format: cell-based, human. Particulars: rotenone 1 μM; HY08 0.3 μM; NAC 1 μM.

As for `CCCCC/C=C\C/C=C\C/C=C\C/C=C\CCCC(=O)O` [AA, arachidonic acid], the “intracellular 4-HNE production” value in the experiment with SH-SY5Y cells [1] was “significantly enhanced”.

As for `CC(=O)N[C@@H](CS)C(=O)O` [NAC, N-Acetyl cysteine], the “rotenone-induced mitochondrial membrane potential loss and cell death” value in the experiment on SH-SY5Y cells [2] was “exerted inhibitory effects”.
